Patent publication US20250281625A1, “FOLIC ACID-CONJUGATED AMINOCLAY BASED NANOCOMPOSITES FOR THE SITE-SPECIFIC DRUG DELIVERY, METHOD FOR THEIR PREPARATION AND THEIR USE” (Dongguk University Industry-Academic Cooperation Foundation, priority 2021, published 2025)

Legend:
[1] = in water; cited from earlier work
[2] = test system: colitis-induced mice; assay: in vivo efficacy in dextran sodium sulfate colitis-induced mice; parameters: species or system C57BL/6 mice; settings: oral, 10 mg/kg once daily for 8 days, DSS colitis mice, day 9
Description: (§1) Before inducing colitis, 8-week-old C57BL/6 mice were raised under standard conditions at 21° C. to 22° C. in a 12-hour light/dark cycle for 7 days. On the day of the experiment (Day 0), mice were randomly divided into five groups: a healthy control group and four experimental groups [dextran sodium sulfate administration group (DSS), dextran sodium sulfate and phosphate-buffer saline (PBS) administration group (DSS+PBS), dextran sodium sulfate and infliximab administration group (DSS+IFX), and dextran sodium sulfate and EFA-AC-IFX administration group (DSS+EFA-AC-IFX)]. Colitis was induced in mice by adding 2.0% (w/v) dextran sodium sulfate to drinking water.
(§2) To investigate the therapeutic effect of nanoparticles, colitis-induced mice in each experimental group were orally administered with 200 μL of PBS, infliximab (10 mg/kg), or EFA-AC-IFX (10 mg/kg) once daily for 8 days. On Day 8, drinking water containing dextran sodium sulfate was replaced with pure water. […]
To evaluate the therapeutic efficacy of EFA-AC-IFX for colitis, mouse colon tissues were histologically analyzed using hematoxylin-eosin (H&E) staining. […] The severity of colitis in each colonic section was assessed using a blinded approach by measuring mucosal features, such as epithelial damage, mucosal edema, and inflammatory cell infiltration of the mucosa.

[3] = test system: TNF-α; assay: TNF-α concentration in colonic samples of colitis-induced mice (ELISA); format: in vivo, C57BL/6 mice; settings: oral, 10 mg/kg once daily for 8 days, DSS colitis mice, compared to control group
Description: as §1
as §2, with “water. During the experiment, changes in body weight, stool consistency, and the presence of blood in the stool or anus were checked daily.” for “water.”
The level of TNF-α, one of the important inflammatory mediators involved in the pathogenesis of ulcerative colitis, is increased by inducing colitis in mice. Therefore, the concentration of TNF-α in colonic samples obtained from each experimental group was quantified using a TNF-α ELISA kit.

Row | Compound | water solubility [1] | colon length [2] | concentration of TNF-α in colonic samples [3]
1 | Nc1nc2ncc(CNc3ccc(C(=O)N[C@@H](CCC(=O)O)C(=O)O)cc3)nc2c(=O)[nH]1 [folic acid] | 0.0016 mg/g |  | 
2 | Infliximab |  | 6.2±0.25 cm | significantly increased compared to the control group
